Reference: patent US20100255117A1, “METHODS AND COMPOSITIONS FOR THE TREATMENT OF CANCER” (The Johns Hopkins University, priority 2007, published 2010)

Key:
A549 cells [1] = assay: Clonogenic survival after ionizing radiation, A549; assay type: cell-based, human; details: A549-NRF2 shRNA cells
Experimental: (§1) Clonogenic assays: Exponentially growing cells were counted, diluted and seeded in triplicate at 1000 cells per culture dish (100 mm). Cells were incubated for 24 h in a humidified CO2 incubator at 37° C., exposed to high dose rate (0.68Gy/min) radiation using a Gamma cell 40 ^137Cs irradiator (Atomic Energy of Canada, Ltd). To assess clonogenic survival following radiation exposure, cell cultures were incubated in complete growth medium at 37° C. for 14 days and then stained with 50% methanol-crystal violet solution. Only colonies with more than 50 cells were counted, and the surviving fraction was calculated and compared to the control.

ROS = assay: Measurement of ROS levels (c-H2DCFDA, flow cytometry); assay type: cell-based, human; details: NAC for 30 mins
Experimental: Measurement of ROS levels: Cells were incubated with 10 μM c-H2DCFDA (molecular probes, Invitrogen, CA) for 30 mins at 37° C. to assess the ROS mediated oxidation to the fluorescent compound c-H2DCF. Fluorescence of oxidized c-H2DCF was measured at an excitation wavelength of 480 nm and an emission wavelength of 525 nm using a FAC Scan flow cytometer (Becton Dickinson).

H460 cells = assay: Clonogenic survival after ionizing radiation, H460; assay type: cell-based, human; details: H460-NRF2 shRNA cells
Experimental: as §1

A549-C8-luc cells = assay: Orthotopic A549-C8-luc lung tumor model, inhaled siRNA with or without carboplatin; assay type: in vivo, SCID-Beige mice; details: carboplatin 30 mg/kg i.p. twice/week, 4 weeks
Experimental: Experimental Lung Metastasis: In experimental metastasis experiments, 2×10^6 A549-C8-luc cells were injected into SCID-Beige mice (Charles River, Mass.) intravenously. For delivery of siRNA into lung tumors, 100 μg of siRNA duplex diluted in PBS was aerosolized using a nebulizer. Mice were given three doses of siRNA (100 μg/dose) every week, for 4 weeks, using a nebulizer. Intraperitoneal injections of carboplatin were given at a dose of 30 mg/kg body weight twice/week. All experimental animal protocols were performed in accordance with guidelines approved by the animal care committee at the Johns Hopkins University Bloomberg School of Public Health.
In Vivo Imaging: For luminescent imaging, animals inoculated with A549-C8-luc cells, which express a luciferase reporter gene, were anesthetized and injected intraperitoneally with 250 ul of luminescent substrate (15 mg/ml stock) D-Luciferin Firefly (Xenogen Cat# XR-1001). The animals were then imaged and analyzed by using the Xenogen IVIS Optical Imaging Device in the Johns Hopkins Oncology Center.

A549 cells [2] = assay: A549 subcutaneous tumor xenograft, intratumoral siRNA with or without carboplatin/radiation; assay type: in vivo, athymic nude mice
Experimental: Tumor Xenografts and siRNA Treatment: We injected A549 cells (5×10^6) and H460 cells (2×10^6) subcutaneously into the hind leg of male athymic nude mice and measured the tumor dimensions by caliper once per week. The tumor volumes were calculated using the following formula: [length (mm)×width (mm)×width (mm)×0.52]. For in vivo delivery of siRNA into tumors, siRNA duplexes diluted in PBS were injected into the tumors using insulin syringes at a concentration of 10 μg of siRNA/50 mm^3 of tumor volume. Intraperitoneal injections of carboplatin were given at a dose of 40 mg/kg body weight. Both siRNA and carboplatin were administered twice weekly for 4 weeks. Upon termination, tumors were harvested and weighted. For radiation exposure, mice with subcutaneous tumors were exposed to high dose rate radiation (2 dose of 3Gy each) using a Gamma cell 40 ^137Cs irradiator (Atomic Energy of Canada, Ltd).
Statistical Analysis—Statistical comparisons were performed by Student's t-tests or Wilcoxon rank-sum test. A value of p<0.05 was considered statistically significant. Tumor weights and changes in tumor volume were summarized using descriptive statistics. Differences in tumor measures between treatment groups were examined using linear regression models with generalized estimating equations (GEE). The distributions of both tumor measurements were skewed, so log transformations were used.

Compound | cell survival after radiation with NAC pretreatment (A549 cells [1]) | reduction of ROS production / mean fluorescent intensity (ROS; A549-NRF2shRNA cells) | reduction of ROS production / mean fluorescent intensity (ROS; H460-NRF2shRNA cells) | cell survival after radiation with NAC pretreatment (H460 cells) | ratio of lung weights, siRNA vs siRNA+carboplatin treated tumors (A549-C8-luc cells) | ratio of differences in change in tumor volume, siRNA+carboplatin vs siRNA (A549 cells [2]; experiment 1) | ratio of tumor weights, siRNA vs siRNA+carboplatin treated tumors (A549 cells [2]; experiment 1, carboplatin 40 mg/kg i.p. twice weekly) | ratio of differences in change in tumor volume, siRNA+carboplatin vs siRNA+radiation (A549 cells [2]; experiment 1, not significant) | ratio of tumor weights, siRNA+carboplatin vs siRNA treated tumors (A549 cells [2]; second experiment)
CC(=O)N[C@@H](CS)C(=O)O [NAC, N-acetyl cysteine] | significantly increased cell survival | 85% | 75% | significantly increased cell survival | – | – | – | – | –
N.N.O=C([O-])C1(C(=O)[O-])CCC1.[Pt+2] [carboplatin] | – | – | – | – | 1.73 | 0.45 | 2.13 | 0.77 | 0.55
